Data reported in patent publication US20230348418A1, “ISOINDOLINONE COMPOUNDS” (Monte Rosa Therapeutics, Inc., priority 2021, published 2023).
pIC50: −log10 of the molar value. Like-named read-outs stand apart in the source and are kept apart here.

Assays:
GSPT1 [1] = biological target: T1, GSPT1 (Homo sapiens, UniProt P15170+Q96SW2); assay: Immunofluorescence assay for GSPT1 degradation in CAL-51 cells (Example 4); format: cell-based; design: host or cells: CAL-51
Protocol: The representative compounds were tested in an immunofluorescence assay for their activity to bind to degrade GSPT1. […] Compounds were stored at 10 mM DMSO stocks. […] Cells were subsequently rinsed with PBS and fixed in 10% Formalin solution (50 μl, Sigma HT5011)) for 20 mins at room temperature. […] Following three further PBS washes, […] blocking buffer (1% BSA, Sigma A4503, in PBS) was added for 45 min for signal-to-noise reduction.
Primary antibody (human GSPT1, Sigma HPA052488) was diluted in blocking buffer (dil.1/300, 35 μl/well) and incubated with the cells overnight at 4° C. […] After three final PBS washes, samples were conserved in 100 μl PBS in the dark, until measurement. Image acquisition was performed on the Operetta High-Content Imager (Perkin-Elmer). […] For the determination of GSPT1 DC50 values, a custom algorithm implemented in the PerkinElmer image analysis software Harmony-Acapella® was developed. After user-defined setting of adjustment parameters, the analysis was run identically without human intervention for all image fields. DAPI staining of the nuclei was used to determine the location of cells using standard nuclei detection modules. Segmentation artifacts were removed by threshold-based filters for area, roundness and intensity. The outline of the cells was determined analogously from the sum of the normalized, smoothed DAPI and Actin channel, starting from each nucleus.
GSPT1 degradation (DC50) was calculated after normalization to controls and data import in CDD vault Database, using non-linear regression.

[2] = biological target: T2, Full length wild-type cereblon CRBN (Homo sapiens, UniProt Q96SW2); assay: Fluorescence polarization (FP) assay, cereblon binding
T2 construct: Full length wild-type cereblon CRBN (80.0 nM, 10 μL) was incubated in assay buffer
T2 sequence (Q96SW2 whole entry): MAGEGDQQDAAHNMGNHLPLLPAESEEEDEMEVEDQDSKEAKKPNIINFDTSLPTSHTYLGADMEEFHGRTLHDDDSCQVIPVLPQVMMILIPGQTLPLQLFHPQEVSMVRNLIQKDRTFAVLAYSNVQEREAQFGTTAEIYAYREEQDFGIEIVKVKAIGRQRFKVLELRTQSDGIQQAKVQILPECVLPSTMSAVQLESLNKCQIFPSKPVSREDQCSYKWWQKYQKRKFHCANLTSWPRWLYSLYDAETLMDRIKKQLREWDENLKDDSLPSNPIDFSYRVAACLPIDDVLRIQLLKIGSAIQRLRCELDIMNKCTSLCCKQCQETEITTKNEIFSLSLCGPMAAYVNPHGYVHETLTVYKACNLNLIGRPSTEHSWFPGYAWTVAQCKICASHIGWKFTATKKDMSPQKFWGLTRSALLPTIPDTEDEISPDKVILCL
Method in brief: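 Full-length wild-type human CRBN (80.0 nM) was preincubated with compound for 30 min at room temperature in 20 mM HEPES pH 8.0, 150 NaCl, 0.5 mM TCEP and 0.05% Tween 20. A Cy5-type thalidomide-linked fluorescent probe was then added. The FP signal was normalized to the DMSO control to derive IC50.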

GSPT1 [3] = biological target: T1, GSPT1; assay: Immunofluorescence assay for GSPT1 degradation in CAL-51 cells (Example 10); format: cell-based; design: host or cells: CAL-51; conditions: 6 h, read-out: IF Class (GSPT1 degradation, DC50)
Protocol: The representative compounds were tested in an immunofluorescence assay for their activity to degrade GSPT1. […] Compounds were stored at 10 mM DMSO stocks. […] Cells were subsequently rinsed with PBS and fixed in 10% Formalin solution (50 μl, Sigma HT5011)) for 20 mins at room temperature. […] Following three further PBS washes, 50 μL blocking buffer (1% BSA, Sigma A4503, in PBS) was added for 45 min for signal-to noise reduction. Primary antibody (human GSPT1, Sigma HPA052488) was diluted in blocking buffer (dil.1/300, 35 μL/well) and incubated with the cells overnight at 4° C. […] After three final PBS washes, samples were conserved in 100 μL PBS in the dark, until measurement. Image acquisition was performed on the Operetta High-Content Imager (Perkin-Elmer). […] For the determination of GSPT1 DC50 values, a custom algorithm implemented in the PerkinElmer image analysis software Harmony-Acapella® was developed. After user-defined setting of adjustment parameters, the analysis was run identically without human intervention for all image fields.
DAPI staining of the nuclei was used to determine the location of cells using standard nuclei detection modules. Segmentation artifacts were removed by threshold-based filters for area, roundness and intensity. The outline of the cells was determined analogously from the sum of the normalized, smoothed DAPI and Actin channel, starting from each nucleus. […] GSPT1 degradation (DC50) was calculated after normalization to controls and data import in CDD vault Database, using non-linear regression.

CRBN-DDB1 = CRBN-DDB1 (Homo sapiens, UniProt Q96SW2); assay: HTRF binding of compounds to CRBN; conditions: read-out: HTRF Class (Cereblon binding, HTRF IC50)
Chain of CRBN-DDB1 (Q96SW2 whole entry): as above
Chain of CRBN-DDB1 (Q16531 whole entry partner): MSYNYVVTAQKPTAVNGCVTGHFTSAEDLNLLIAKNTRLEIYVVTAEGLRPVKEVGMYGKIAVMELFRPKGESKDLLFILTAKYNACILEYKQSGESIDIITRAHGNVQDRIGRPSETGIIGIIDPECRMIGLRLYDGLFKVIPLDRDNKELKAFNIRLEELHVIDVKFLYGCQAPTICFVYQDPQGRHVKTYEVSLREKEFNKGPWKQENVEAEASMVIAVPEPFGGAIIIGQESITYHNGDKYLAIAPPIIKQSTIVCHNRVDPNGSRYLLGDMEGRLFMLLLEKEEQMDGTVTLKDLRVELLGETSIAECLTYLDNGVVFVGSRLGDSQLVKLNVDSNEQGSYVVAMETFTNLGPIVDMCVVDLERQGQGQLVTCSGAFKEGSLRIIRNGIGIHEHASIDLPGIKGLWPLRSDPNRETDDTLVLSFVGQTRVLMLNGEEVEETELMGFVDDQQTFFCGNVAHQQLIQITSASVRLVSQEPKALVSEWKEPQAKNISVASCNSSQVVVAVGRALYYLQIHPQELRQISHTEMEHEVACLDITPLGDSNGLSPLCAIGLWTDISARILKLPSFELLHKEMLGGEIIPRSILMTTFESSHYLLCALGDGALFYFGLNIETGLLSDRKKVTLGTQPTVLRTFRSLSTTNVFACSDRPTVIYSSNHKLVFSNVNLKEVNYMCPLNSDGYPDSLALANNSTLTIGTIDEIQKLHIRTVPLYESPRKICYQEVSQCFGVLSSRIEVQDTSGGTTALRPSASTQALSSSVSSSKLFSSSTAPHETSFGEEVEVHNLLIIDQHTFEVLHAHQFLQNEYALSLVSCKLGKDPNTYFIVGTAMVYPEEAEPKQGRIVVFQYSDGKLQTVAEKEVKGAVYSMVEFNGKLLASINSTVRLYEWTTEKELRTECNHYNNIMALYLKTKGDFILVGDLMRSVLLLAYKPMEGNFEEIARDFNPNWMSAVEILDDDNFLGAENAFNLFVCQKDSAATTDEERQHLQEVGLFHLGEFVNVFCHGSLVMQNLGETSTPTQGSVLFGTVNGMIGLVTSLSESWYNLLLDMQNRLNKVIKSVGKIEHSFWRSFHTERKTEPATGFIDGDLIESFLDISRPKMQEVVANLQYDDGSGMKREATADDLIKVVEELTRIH
Method in brief: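 CRBN-DDB1 binding measured by HTRF displacement of a Cy5-labelled thalidomide-type probe; 10-point 1:3 compound series, 30 min at ambient temperature. IC50 from curve fitting; Ki from geometric-mean IC50 via Cheng-Prusoff.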

[4] = CAL-51 cells, 6 hours, read-out: Code (activity for GSPT1 degradation, DC50)
[5] = bounds stated in the text lists b2059-b2061, read-out: IC50 value
[6] = cereblon binding, class code, read-out: rFP IC50
[7] = compounds with code A, read-out: DC50 value

T1 sequence (P15170 whole entry): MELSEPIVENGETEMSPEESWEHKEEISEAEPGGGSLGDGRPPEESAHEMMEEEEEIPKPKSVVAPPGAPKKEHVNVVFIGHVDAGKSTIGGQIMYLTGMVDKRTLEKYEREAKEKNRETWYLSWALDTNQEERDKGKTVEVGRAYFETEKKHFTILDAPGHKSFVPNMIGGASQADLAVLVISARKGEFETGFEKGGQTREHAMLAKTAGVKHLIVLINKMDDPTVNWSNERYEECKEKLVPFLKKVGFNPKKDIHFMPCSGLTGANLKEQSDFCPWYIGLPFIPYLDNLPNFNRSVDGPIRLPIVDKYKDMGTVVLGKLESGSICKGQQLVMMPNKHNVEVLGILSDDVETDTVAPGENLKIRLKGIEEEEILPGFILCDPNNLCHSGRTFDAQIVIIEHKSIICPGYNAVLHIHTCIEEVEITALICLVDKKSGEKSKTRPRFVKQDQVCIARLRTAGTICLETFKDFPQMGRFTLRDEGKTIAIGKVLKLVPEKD
T1 sequence (Q96SW2 whole entry): as the sequence (Q96SW2 whole entry) above
T1 sequence (Q16531 2-1140 partner limits assumed): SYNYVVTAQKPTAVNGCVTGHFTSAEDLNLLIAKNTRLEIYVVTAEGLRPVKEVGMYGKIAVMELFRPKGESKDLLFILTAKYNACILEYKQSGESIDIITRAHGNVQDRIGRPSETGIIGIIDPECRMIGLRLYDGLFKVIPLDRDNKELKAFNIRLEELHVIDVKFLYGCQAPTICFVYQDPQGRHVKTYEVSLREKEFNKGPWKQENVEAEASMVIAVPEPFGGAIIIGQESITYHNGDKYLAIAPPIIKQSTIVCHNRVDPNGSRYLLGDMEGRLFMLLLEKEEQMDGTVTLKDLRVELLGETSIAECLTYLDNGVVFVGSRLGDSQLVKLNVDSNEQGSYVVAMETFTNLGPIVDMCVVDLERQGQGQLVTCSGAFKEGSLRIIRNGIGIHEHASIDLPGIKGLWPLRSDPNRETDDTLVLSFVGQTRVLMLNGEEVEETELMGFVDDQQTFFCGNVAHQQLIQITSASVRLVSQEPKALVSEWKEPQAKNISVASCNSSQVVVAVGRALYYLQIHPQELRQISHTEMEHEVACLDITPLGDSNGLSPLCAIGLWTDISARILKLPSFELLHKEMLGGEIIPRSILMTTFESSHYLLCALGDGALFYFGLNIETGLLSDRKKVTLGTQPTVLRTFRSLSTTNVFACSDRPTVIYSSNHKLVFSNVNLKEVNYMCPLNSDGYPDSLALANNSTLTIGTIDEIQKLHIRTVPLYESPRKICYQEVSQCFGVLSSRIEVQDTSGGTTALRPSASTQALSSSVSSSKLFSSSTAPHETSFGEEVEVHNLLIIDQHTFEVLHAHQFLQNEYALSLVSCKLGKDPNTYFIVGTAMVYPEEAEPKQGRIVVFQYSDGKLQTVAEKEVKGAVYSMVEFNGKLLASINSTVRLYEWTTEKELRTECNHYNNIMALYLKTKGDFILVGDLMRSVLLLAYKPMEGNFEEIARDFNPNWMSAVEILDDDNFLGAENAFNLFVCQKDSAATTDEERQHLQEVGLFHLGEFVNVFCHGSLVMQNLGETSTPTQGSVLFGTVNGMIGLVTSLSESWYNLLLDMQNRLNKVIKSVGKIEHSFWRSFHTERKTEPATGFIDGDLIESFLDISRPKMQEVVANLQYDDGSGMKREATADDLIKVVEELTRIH

Row | Compound | DC50 (GSPT1 [1]; [4]) | pIC50 [2, 5] | pIC50 [2, 6] | other results
1 | CC(F)(F)c1ccc(NC(=O)OCc2ccc3c(c2)C(=O)N(C2CCC(=O)NC2=O)C3)cc1 (stereo not drawn) [Compound 99] | 30 to 300 nM | > 5.77 | 5.77 to 5.96 | 
2 | O=C1CCC(N2Cc3ccc(COC(=O)Nc4ccc(C5(F)CC5)cc4)cc3C2=O)C(=O)N1 (stereo not drawn) [Compound 115, (2-(2,6-dioxopiperidin-3-yl)-3-oxoisoindolin-5-yl)methyl(4-(1-fluorocyclopropyl)phenyl) carbamate] | 30 to 300 nM | > 6.30 | > 6.30 | 
3 | O=C1CCC(N2Cc3ccc(COC(=O)Nc4cccc(OC5CC5(F)F)c4)cc3C2=O)C(=O)N1 (stereo not drawn) [Compound 140] | < 30 nM | > 5.96 | 5.96 to 6.30 | DC50 (GSPT1 [1]; [7]): ≤ 30 nM
4 | Cc1c(Cl)cc(NC(=O)OCc2ccc3c(c2)C(=O)N(C2CCC(=O)NC2=O)C3)cc1CC1COCCN1C (stereo not drawn) [Compound 150, (2-(2,6-dioxopiperidin-3-yl)-3-oxoisoindolin-5-yl) methyl(3-chloro-4-methyl-5-((4-methylmorpholin-3-yl)methyl)phenyl)carbamate] |  |  |  | DC50 (GSPT1 [1]; [7]): ≤ 30 nM; DC50 (GSPT1 [1]; read-out: Code (activity for GSPT1 degradation, DC50), CAL-51 cells, 6 hours): < 30 nM; pIC50 ([2]; IC50 value, bounds stated in the text lists b2059-b2061): > 5.77; IC50 ([2]; rFP IC50 [nM], cereblon binding, class code): 1100 to 1700 nM
5 | CCc1cc(NC(=O)OCc2ccc3c(c2)C(=O)N(C2CCC(=O)NC2=O)C3)sn1 (stereo not drawn) [Compound 151] | 30 to 300 nM | > 6.30 | > 6.30 | 
6 | O=C1CCC(N2Cc3ccc(COC(=O)Nc4cc(OC(F)F)c(F)cc4F)cc3C2=O)C(=O)N1 (stereo not drawn) [Compound 218, (2-(2,6-dioxopiperidin-3-yl)-3-oxoisoindolin-5-yl)methyl(5-(difluoromethoxy)-2,4-difluorophenyl) carbamate] |  |  |  | DC50 (GSPT1 [3]): > 300 nM; pIC50 (CRBN-DDB1): > 7.00
7 | CC(C)(C)OC(=O)C12CC(NC(=O)OCc3ccc4c(c3)C(=O)N(C3CCC(=O)NC3=O)C4)(C1)C2 (stereo not drawn) [Compound 224, tert-butyl 3-((((2-(2,6-dioxopiperidin-3-yl)-3-oxoisoindolin-5-yl)methoxy)carbonyl)amino)bicyclo[1.1.1]pentane-1-carboxylate] |  |  |  | DC50 (GSPT1 [3]): 30 to 300 nM; pIC50 (CRBN-DDB1): 6.00 to 7.00
